Results: patent US8399518B2, “Administration of 3,5-diiodothyropropionic acid for stimulating weight loss, and/or lowering triglyceride levels, and/or treatment of metabolic syndrome” (University of Arizona Office of Technology Transfer, priority 2007, dated 2013)

Assay: Human clinical study with DITPA: weight loss in patients with a history of congestive heart failure
Type: in vivo
Settings: maximum 26 weeks; for patients who experienced a weight loss of 2% or more: DITPA or placebo (2:1) orally, 90 mg/day increased to 180 or 360 mg/day
Protocol: Fifty-four patients with a history of congestive heart failure were administered DITPA or placebo in a 2:1 randomized and double-blinded manner for a maximum of 26 weeks. […] The patients in the study were administered DITPA orally twice per and the dose began at 90 mg/day and increased to 180 mg/day after two weeks. In half of the DITPA patients, the dose was increased further to 270 mg/day after two weeks, and then to 360 mg/day. Patients were randomized 1:1:1 to DITPA 180 mg/day, DITPA 360 mg/day, or placebo.

O=C(O)CCc1cc(I)c(Oc2ccc(O)cc2)c(I)c1 [DITPA, 3,5-diiodothyropropionic acid]
decrease in weight, overweight patients versus patients of normal body weight (oral DITPA 180 or 360 mg/day): greater decrease in weight in overweight patients than those of normal body weight | patients who experienced a weight loss of 2% or more (patients with body mass index greater than 25): 71.05% | patients who experienced a weight loss of 2% or more (patients with body mass index less than or equal to 25): 37.5%
